Patent publication US8207310B2, “Antibodies to proteolysis inducing factor (PIF) receptor and methods of use thereof” (Ashton University, priority 2006, dated 2012)
Entries after “also recorded” stand apart in the source; their conditions may differ.

Test system: PIF receptors on C2C12 membranes
Experiment: Competitive binding of [35S]PIF to C2C12 membranes
Parameters: species or system mouse
Conditions: result in words
Description: Competitive binding of [^35S]PIF C2C12 membranes (200 μg) in PBS (250 μl) were incubated with 1, 5, 10, 50, 100, 500 or 1000 ng of either monoclonal antibody, chondroitin, dermatan or heparan sulfate and 20 nM (480 ng) of [^35S]PIF overnight at 4° C. The bound radioactivity was determined from the radioactivity in the pellet obtained by centrifugation at 13,000 g for 5 min.
The Kaff was determined according to a modification (Clark, B. R. and Todd, C. W. Avidin as a precipitant for biotin-labelled antibody in a radioimmunoassay for carcinoembryonic antigen. Anal. Biochem., 121: 257-262, 1982.) of the method of Muller (Muller, R.
Calculation of average antibody affinity in anti-hapten sera from data obtained by competitive radioimmunoassay. J. Immunol. Methods, 34: 345-352, 1980.). Kaff=^1/(It−Tt)(1−[…]+0.5b^2) where It is the inhibitor concentration at 50% inhibition of PIF binding; Tt the total PIF concentration; b the fraction of PIF bound in the absence of inhibitor.

chondroitin sulfate was tested, and the “inhibition of binding of PIF to receptors on C2C12 membranes” value was “competitive inhibition; also recorded: specifically inhibited”.

With heparan sulfate the “inhibition of binding of PIF to receptors on C2C12 membranes” value was “not”.
